Data reported in patent publication US20230357240A1, “NOVEL N-HETEROCYCLIC BET BROMODOMAIN INHIBITOR, AND PREPARATION METHOD THEREOF AND MEDICAL USE THEREOF” (Chengdu Easton Biopharmaceuticals Co., Ltd., priority 2020, published 2023).
Read-outs that look alike come from different tables or passages of the source.

Legend:
[1] = Pharmacokinetic test in SD rats (plasma drug concentration by LC/MS/MS); assay type: in vivo; settings: rat, 2 mg/kg; for AUC(0-t): read-out: Area under the curve AUClast; for half-life: read-out: Half life T1/2 (converted); for Cmax: read-out: Peak concentration Cmax; for MRT: read-out: Retention time MRT; for Tmax: read-out: Time to peak Tmax
Experimental: EXAMPLE 10 Pharmacokinetic Test of the Compound of the Present Application
SD rats were used as test animals. After gavage administration or tail vein injection of the compound of the present application to the rats, plasma drug concentrations were measured by the LC/MS/MS method at different moments, and pharmacokinetic features of the compound of the present application in the rats was studied.
Source of SD rats: Chengdu Dashuo Experimental Animal Co., Ltd.
Method of administration: single gavage administration and single tail vein injection
Dosage and concentration: 2 mg/kg rat body weight, 0.5 mg/mL
Formulation: 20% β-cyclodextrin solution
Sampling points: 5 min, 15 min, 30 min, 45 min, 1 h, 1.5 h, 2 h, 4 h, 5 h, 6 h, 7 h, 8 h, 9 h and 24 h
Standard curve preparation and sample treatment: 10 mg of the sample to be tested was accurately weighed and added into 1 mL of DMSO for dissolution, and the mixture was used as a stock solution. The stock solution was diluted with 50% (v/v) methanol aqueous solution to prepare standard working solutions having a concentration of 10, 20, 50, 100, 200, 500, 1000 and 2000 ng/mL, respectively. 5 μL of each of the standard working solutions was added to 45 μL of blank rat plasma to prepare standard samples containing the analyte at concentrations of 1.00, 2.00, 5.00, 10.00, 20.00, 50.00, 100.00 and 200.00 ng/mL, 200 μL of methanol (containing internal standard substance: 5 ng/mL memantine hydrochloride) was added to each standard sample, the standard samples were oscillated for 3 minutes and centrifuged at 12000 rpm at 4° C. for 10 minutes, and […] of the supernatant was collected for LC-MS/MS analysis. The test results were calculated by Analyst® software.
Preparation of quality control solution and sample treatment: 10 mg of the sample to be tested was accurately weighed and added into 1 mL of DMSO for dissolution, and the mixture was used as a stock solution. The stock solution was diluted with 50% (v/v) methanol aqueous solution to prepare quality control working solutions having a concentration of 30, 600 and 1600 ng/mL, respectively. 5 μL of each of the quality control working solutions was added to 45 μL of blank rat plasma to prepare quality control samples containing the analyte at concentrations of 3.00, 60.00 and 160.00 ng/mL, 200 μL of methanol (containing internal standard substance: 5 ng/mL memantine hydrochloride) was added to each standard sample, the standard samples were oscillated for 3 minutes and centrifuged at 12000 rpm at 4° C. for 10 minutes, and […] of the supernatant was collected for LC-MS/MS analysis. The test results were calculated by Analyst® software.

hERG = target: T1, hERG (Homo sapiens, UniProt Q12809); assay: hERG inhibition test, whole-cell patch clamp in HEK293 cells stably expressing the hERG ion channel; assay type: cell-based; settings: human, HEK293 cells stably expressing the hERG ion channel
T1 construct: expressed in transfected cells; host or cells: HEK293 cells stably expressing hERG
T1 sequence (Q12809 whole entry): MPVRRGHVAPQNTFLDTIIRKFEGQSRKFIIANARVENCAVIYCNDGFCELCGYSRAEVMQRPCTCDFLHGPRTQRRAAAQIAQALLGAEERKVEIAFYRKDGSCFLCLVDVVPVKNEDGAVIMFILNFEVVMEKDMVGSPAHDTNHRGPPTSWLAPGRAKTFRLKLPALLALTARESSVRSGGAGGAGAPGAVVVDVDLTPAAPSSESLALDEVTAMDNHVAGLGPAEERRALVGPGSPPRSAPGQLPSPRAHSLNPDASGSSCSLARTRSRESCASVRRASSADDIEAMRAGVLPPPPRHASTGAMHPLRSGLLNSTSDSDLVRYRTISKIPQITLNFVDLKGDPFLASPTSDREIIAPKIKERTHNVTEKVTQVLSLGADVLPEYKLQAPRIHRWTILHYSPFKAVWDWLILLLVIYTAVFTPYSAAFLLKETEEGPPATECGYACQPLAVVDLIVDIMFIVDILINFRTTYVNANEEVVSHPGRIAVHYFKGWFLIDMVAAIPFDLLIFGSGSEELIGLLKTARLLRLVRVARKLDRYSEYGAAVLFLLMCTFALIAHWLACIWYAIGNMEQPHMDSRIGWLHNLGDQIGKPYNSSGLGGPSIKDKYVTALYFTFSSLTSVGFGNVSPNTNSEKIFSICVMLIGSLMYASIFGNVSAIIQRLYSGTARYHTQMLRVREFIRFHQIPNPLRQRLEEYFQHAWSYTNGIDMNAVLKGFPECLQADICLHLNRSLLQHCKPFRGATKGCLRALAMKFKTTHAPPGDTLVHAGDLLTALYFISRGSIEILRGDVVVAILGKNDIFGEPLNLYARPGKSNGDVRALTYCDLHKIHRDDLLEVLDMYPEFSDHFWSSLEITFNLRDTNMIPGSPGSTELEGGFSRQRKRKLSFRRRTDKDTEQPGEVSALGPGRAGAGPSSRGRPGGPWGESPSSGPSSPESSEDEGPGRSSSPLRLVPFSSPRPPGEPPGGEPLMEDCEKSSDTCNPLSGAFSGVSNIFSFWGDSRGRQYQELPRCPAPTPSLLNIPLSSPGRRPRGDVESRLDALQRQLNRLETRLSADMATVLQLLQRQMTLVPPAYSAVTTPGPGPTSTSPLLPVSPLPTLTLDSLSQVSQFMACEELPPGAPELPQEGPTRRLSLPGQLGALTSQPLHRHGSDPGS
Experimental: (§1) An hERG current was recorded by the whole-cell patch clamp technique. A suspension of HEK293 cells stably expressing the hERG ion channel was added to a 35 mm culture dish, and the culture dish was put on a stage of an inverted microscope. […] The pulse program was repeated every 15 seconds throughout the whole test. After the current became stable, the administration method of continuous extracellular perfusion from low concentration to high concentration was used, and the perfusion started from low concentration and continued until the drug effect was stable, and then the perfusion of the next concentration was performed.
(§2) After the test, stimulus release and signal acquisition were carried out through PatchMaster software. Graphpad Prism 8.0 was used for further data analysis and curve fitting. Effects of each compound at different concentrations were represented with an inhibition rate of the tail current. Inhibition rate=(peak tail current before administration—peak tail current after administration)/peak tail current before administration x 100%. Half-maximal inhibitory concentration IC50 of the test samples was obtained by the fitting analysis with Hill equation.

hERG ion channel = target: T2, hERG ion channel (Homo sapiens, UniProt Q12809); assay: as above; assay type: cell-based; settings: tail current, Hill equation fit
T2 construct: expressed in transfected cells; host or cells: HEK293 cells stably expressing hERG
T2 sequence (Q12809 whole entry): as above
Experimental: as §1, §2

[2] = read-out: Average hERG inhibition rate
[3] = read-out: hERG Inhibition rate, Cell 1
[4] = read-out: hERG Inhibition rate, Cell 2

## CCNC(=O)c1cc2c(-c3sc(C(C)(C)O)cc3N3CCc4ccccc43)cn(C)c(=O)c2[nH]1 [Compound 1, N-ethyl-4-(5-(2-hydroxypropyl-2-yl)-3-(indolin-1-yl)thiophen-2-yl)-6-methyl-7-oxo-6,7-dihydro-1H-pyrrolo[2,3-c]pyridine-2-carboxamide]
[1]; iv, tail vein injection
  AUC(0-t): 327 ng·h/mL
  half-life: 61.8 min
  Cmax: 276 ng/mL
  MRT: 87 min
  Tmax: 4.8 min
[1]; po, gavage
  AUC(0-t): 250 ng·h/mL
  half-life: 49.8 min
  Cmax: 143 ng/mL
  MRT: 82.2 min
  Tmax: 17.4 min
hERG; [2]
  inhibition at 0.37 µM: 3.89%
  inhibition at 1.11 µM: 4.35%
  inhibition at 3.33 µM: 10.1%
  inhibition at 10 µM: 21.6%
  inhibition at 30 µM: 56.3%
hERG; [3]
  inhibition at 0.37 µM: 0.98%
  inhibition at 1.11 µM: -0.28%
  inhibition at 3.33 µM: 2.97%
  inhibition at 10 µM: 14.6%
  inhibition at 30 µM: 54.3%
hERG; [4]
  inhibition at 0.37 µM: 6.79%
  inhibition at 1.11 µM: 8.97%
  inhibition at 3.33 µM: 17.3%
  inhibition at 10 µM: 28.6%
  inhibition at 30 µM: 58.3%
hERG ion channel
  IC50: 26.8 µM
